Target: Programmed cell death 1 ligand/protein 1 (Homo sapiens, UniProt Q9NZQ7)
Test: PD-L1 Binding Assay
Procedure: Experimental Materials:PD1:PD-L1 TR-FRET assay kit, purchased from BPS Biosciences. Nivo multimode microplate reader (PerkinElmer)Experimental Method:PD1-Eu, dye-labeled acceptor, PD-L1-biotin, and compound to be tested were all diluted using the buffer in the kit.The compound to be tested was diluted 5-fold to the 8th concentration, i.e., from 4 μM to 0.05 nM, and the DMSO concentration was 4%. The experiment was set up in duplicate wells. 5 μL of each concentration gradient of the compound to be tested was added to a microtiter plate, wherein 5 μL of a buffer containing 4% DMSO and 5 μL of PD-L1-biotin (60 nM) was added to the Max signal well, and only 5 μL of buffer was added to the Min signal well. The plate was incubated at 25° C. for 20 minutes. After the incubation, 5 μL of diluted PD1-Eu (10 nM) and 5 μL of diluted dye-labeled acceptor were added to each well. The system was reacted at 25° C. for 90 minutes. After the reaction, the multimode microplate reader was used to read the time-resolved fluorescence analysis signal.

Chain of Programmed cell death 1 ligand/protein 1 (Q9NZQ7 whole entry): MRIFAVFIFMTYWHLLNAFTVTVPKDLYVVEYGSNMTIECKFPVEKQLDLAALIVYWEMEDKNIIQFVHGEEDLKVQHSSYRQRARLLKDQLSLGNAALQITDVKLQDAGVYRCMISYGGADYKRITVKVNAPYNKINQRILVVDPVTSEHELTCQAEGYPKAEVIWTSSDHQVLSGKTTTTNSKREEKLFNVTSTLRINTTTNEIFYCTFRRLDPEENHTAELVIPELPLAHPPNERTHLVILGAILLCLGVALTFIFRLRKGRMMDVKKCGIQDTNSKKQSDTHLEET
Chain of Programmed cell death 1 ligand/protein 1 (Q15116 whole entry, further chain): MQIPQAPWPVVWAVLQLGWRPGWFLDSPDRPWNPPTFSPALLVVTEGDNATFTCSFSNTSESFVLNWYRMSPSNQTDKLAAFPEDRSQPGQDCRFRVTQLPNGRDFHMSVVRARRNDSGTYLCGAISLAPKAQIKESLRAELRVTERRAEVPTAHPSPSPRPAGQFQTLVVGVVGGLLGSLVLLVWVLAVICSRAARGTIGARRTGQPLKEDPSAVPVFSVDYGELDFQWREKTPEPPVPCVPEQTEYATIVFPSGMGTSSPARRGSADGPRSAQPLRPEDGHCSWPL

`COc1nc(-c2cccc(-c3cccc4c3CCN4c3nccc4cc(CN5CC[C@@H](O)C5)cnc34)c2Cl)ccc1CNC[C@@H]1CCC(=O)N1` [US20240132491, Example 1] was tested. Which IC50 did it give?
The IC50 was 1.95 nM.

From BindingDB's records for patent US20240132491 (Medshine Discovery, 2024)
